Read-outs that look alike come from different tables or passages of the source. Positions of bridges follow the written chain, without caps; N, C: chain ends. Residues, ends and D or L forms follow the SMILES beside them. Chains are numbered I, II in the order given.
Columns and labels:
resting macrophages = assay type: in vivo, CFLP (LATI) mice; settings: mice
Description: The phagocytating capacity of resting macrophage cells was investigated on mice [J. Immunopharmacol. 4, 265 (1982-1983)]. […] After bleeding the animals, their peritonea were washed with 8 ml of PBS buffer solution (phosphate buffered saline, pH=7.2) each containing 10 IU of heparin. The cell suspension washed out from the peritoneum was made free of the erythrocytes by shocking with distilled water, then washed 3 times with PBS buffer solution. The sedimentation between two washings was achieved by centrifuging at 1000 rpm for 5 minutes. The concentration of each cell suspension was adjusted to 10^6 cell/ml and the suspension was settled for 30 minutes in a Boyden-chamber at 37° C. in an atmosphere containing 5% of carbon dioxide. Over the macrophages adhered to the glass wall, opsonized yeast was layered. After removing the non-phagocytated particles, those incorporated by the macrophages were counted in each cell. In Table 3, the percentage of decrease in the count of phagocytated yeast cells is given in relation to the macrophages isolated from the untreated animals as control.

[1] = tested on: primary antibody production; assay: Effect on the primary antibody production in newborn rats (haemagglutinin titre); assay type: in vivo, Wistar (LATI) rats; settings: 1 mg/kg i.p. within 12 hours after birth, haemagglutinin titre on day 7 following immunization with sheep erythrocytes
Description: This study is based on the phenomenon of agglutination. A specific antiserum adheres to the surface of the antigen forming large granules which settle rapidly (agglutinate).
Newborn Wistar (LATI) rats were intraperitoneally (i.p.) treated with an 1 mg/kg dose of the test substance within 12 hours after birth. On the 14th day, the animals were i.p. immunized by 0.5 ml of an 1% suspension of sheep erythrocytes. On day 7 following the immunization, blood was taken retroorbitally, after 30 minutes the sera were separated by centrifuging and the haemagglutinin titre was determined according to the method of Takatsy [Acta Microbiol. Acad. Sci. Hung. 3, 191 (1955)]. From the mixed sera (50 μl) of two rats, halving dilutions were prepared in 12 steps. Each sample was given 25 /ul of a 2% suspension of sheep erythroxytes The mixture was incubated at 37° C. for one hour to evaluate the agglutination. The data are summarized in Table 2 which show the suppressing (inhibitory) effect of the compounds on the primary antibody production as a percentage value in relation to the untreated animals. Immunostimulating substances show just the opposite effect in this test.

antibody-producing cells = assay: Effect on the antibody-producing cells in newborn rats (plaque-forming cell count of splenocytes); assay type: in vivo, Wistar (LATI) rats; settings: 1 mg/kg i.p. within 12 hours of birth, immunized day 14 with sheep erythrocytes, splenocytes 7 days later, vs untreated control
Description: This investigation was carried out with splenocytes obtained from newborn rats according to the method of Canningham (Handbook of Experimental Immunology, Ed. D. M. Weir, Vol. 2., Blackwell, Oxford-London, page 285, 1978). Twelve Wistar (LATI) rats arising from a single litter were intraperitoneally (i.p.) treated with 7.5 μg of test substance in a dose of 1 mg/kg within 12 hours of their birth. On the 14th day after birth, the animals were i.p. immunized by 0.5 ml of an 1% suspension of sheep erythrocytes, then bled by decapitation after 7 days. From the splenocytes obtained from the animals, a homogeneous suspension was prepared using sheep erythrocyte suspension and complement which was then put into a chamber suitable for obtaining a monocellular layer. The chambers closed with paraffin were incubated at 37° C. for 45 minutes. Around the antibody-producing splenocytes, lytic areas, the so-called plaques, were formed. Under the effect of treatment with the suppressing substances, the number of the plaque-forming cells (PFC) was decreased. The data summarized in Table 1 illustrate this percentage decrease calculated on the basis of the cells obtained from the untreated control animals.

[2] = tested on: late hypersensitive (DTH) response; assay type: in vivo, CFLP (LATI) mice; settings: mice sensitized with oxazolone
Description: This test was carried out on male CFLP (LATI) mice weighing 25 to 30 g. At the beginning of the experiment, the mice were treated with a 3% solution of oxazolone in anhydrous ethanol by applying 20 μl of solution each on both ears and forepaws. […] The controls were treated only with saline. On day 10 of the experiment, 20 μl of an 2.5% olive oil solution of oxazolone were smeared on each ear of the animals. The thickness of the ears was twice measured, i.e. before and 24 hours after the administration of the antigen. The thickness was measured on both ears in the middle of the ear-lobes with an accuracy of 0.01 mm. The change was compared with the control group. The data concerning the suppression of the development of a DTH response are given as percentage values in Table 4.

[3] = therapeutic dose does not significantly differ from the toxic one; cited from earlier work
[4] = 1 mg/kg s.c. daily for 7 days, count of phagocytated yeast cells vs untreated animals
[5] = 1 mg/kg i.p. on day 7, ear thickness 24 hours after antigen on day 10, vs saline control

For `C[C@@H](O)[C@H](NC(=O)[C@H](CCCCN)NC(=O)[C@@H](N)CCCCN)C(=O)N[C@@H](CCC(=O)O)C(=O)O` [(19), Lys-Lys-Thr-Glu] (H-KKTE-OH), the “Change in the phagocytating capacity of resting macrophages, Change %” value (shortened to “Change in the phagocytating capacity … Change %”) (resting macrophages; [4]) was -18.6%, the “Effect on the primary antibody production, Change in relation to the untreated control %” value [1] was -10.8% and the “Suppression of the antibody production, Change % (number of plaque-forming cells)” value (antibody-producing cells) was -22.9%.

For `CC(C)C[C@H](NC(=O)[C@H](CCCCN)NC(=O)[C@H](CO)NC(=O)[C@@H](N)CCCCN)C(=O)O` [(13), Lys-Ser-Lys-Leu] (H-KSKL-OH), the “Suppression of the DTH response, Suppression %” value (“Suppression … Suppression %” below) [2, 5] was 28.2%.

With `C[C@@H](O)[C@H](NC(=O)[C@H](CCC(=O)O)NC(=O)[C@@H](N)CCCCN)C(=O)O` [(16), Lys-Glu-Thr] (H-Lys-Glu-Thr-OH) the “Suppression … Suppression %” value [2, 5] was 27.5% and the “Suppression of the antibody production, Change % (number of plaque-forming cells)” value (antibody-producing cells) was -36.8%.

For `C[C@@H](O)[C@H](NC(=O)[C@H](CCC(=O)O)NC(=O)[C@@H](NC(=O)[C@@H](N)CCCCN)[C@@H](C)O)C(=O)O` [(17), Lys-Thr-Glu-Thr] (H-KTET-OH), the “Suppression … Suppression %” value [2, 5] was 35.5%, the “Change in the phagocytating capacity … Change %” value (resting macrophages; [4]) was -17.5% and the “Suppression of the antibody production, Change % (number of plaque-forming cells)” value (antibody-producing cells) was -23.2%.

With `N=C(N)NCCC[C@H](N)C(=O)N[C@@H](CCCCN)C(=O)N[C@@H](CC(=O)O)C(=O)N[C@@H](CSSC[C@H](NC(=O)[C@H](CC(=O)O)NC(=O)[C@H](CCCCN)NC(=O)[C@@H](N)CCCNC(=N)N)C(N)=O)C(N)=O` [(12)] (I: H-RKDC-NH2 / II: H-RKDC-NH2; disulfide I:4-II:4) the “Suppression … Suppression %” value [2, 5] was 35.3%, the “Change in the phagocytating capacity … Change %” value (resting macrophages; [4]) was -40.1% and the “Effect on the primary antibody production, Change in relation to the untreated control %” value [1] was -10.7%.

For `O=P1(N(CCCl)CCCl)NCCCO1` (stereo not drawn) [Cyclophosphamide, 2-[-bis(2-chloroethyl)amino]-tetrahydro-2H-1,3,2-oxazaphosphorine-2-oxide, reference compound], the “Suppression … Suppression %” value ([2]; 150 mg/kg i.p. dose) is given as 72%, the “Change in the phagocytating capacity … Change %” value (resting macrophages; 150 mg/kg i.p. dose) is given as -75.0% and the therapeutic index [3] is given as “below 10”.

In the case of `C[C@@H](O)[C@H](NC(=O)[C@H](CO)NC(=O)[C@H](CO)NC(=O)[C@@H](N)CO)C(=O)O` [(15), Ser-Ser-Ser-Thr] (H-SSST-OH), the “Suppression … Suppression %” value [2, 5] was 18.0%.

For `CC(C)C[C@H](NC(=O)[C@H](CCCCN)NC(=O)[C@@H]1CCCN1)C(=O)N[C@H](C(=O)O)[C@@H](C)O` [(18), Pro-Lys-Leu-Thr] (H-PKLT-OH), the “Change in the phagocytating capacity … Change %” value (resting macrophages; [4]) was -11.7% and the “Suppression of the antibody production, Change % (number of plaque-forming cells)” value (antibody-producing cells) was -19.4%.

In the case of `CC(C)C[C@H](NC(=O)[C@H](CCCCN)NC(=O)[C@@H](N)CO)C(=O)O` [(14), Ser-Lys-Leu] (H-Ser-Lys-Leu-OH), the “Suppression … Suppression %” value [2, 5] was 22.7% and the “Change in the phagocytating capacity … Change %” value (resting macrophages; [4]) was -14.0%.

In the case of `Cn1cnc([N+](=O)[O-])c1Sc1ncnc2nc[nH]c12` [azathioprin, 6-(1-methyl-4-nitro-5-imidazolylthio)purine], the therapeutic index [3] is given as “below 10”.

From US5093320A, “Novel peptides inhibiting the maturation of t-lymphocytes and the activity of macrophages, pharmaceutical compositions containing them and process for preparing same” (priority 1989, dated 1992)
